From ChEMBL document CHEMBL1149975, “Synthesis of C2-symmetrical polyhydroxyazepanes as inhibitors of glycosidases” (Bioorg Med Chem Lett, 1996)

Columns and labels:
[1] = Compound was tested for inhibition of beta-N-acetylglucosaminidase from jack beans.; design: species or system Canavalia ensiformis
Beta-galactosidase [2] = biological target: T1, Beta-galactosidase (Aspergillus niger, UniProt P29853); assay: Compound was tested for inhibition of beta-galactosidase from aspergillus niger.
T1 sequence (P29853 whole entry): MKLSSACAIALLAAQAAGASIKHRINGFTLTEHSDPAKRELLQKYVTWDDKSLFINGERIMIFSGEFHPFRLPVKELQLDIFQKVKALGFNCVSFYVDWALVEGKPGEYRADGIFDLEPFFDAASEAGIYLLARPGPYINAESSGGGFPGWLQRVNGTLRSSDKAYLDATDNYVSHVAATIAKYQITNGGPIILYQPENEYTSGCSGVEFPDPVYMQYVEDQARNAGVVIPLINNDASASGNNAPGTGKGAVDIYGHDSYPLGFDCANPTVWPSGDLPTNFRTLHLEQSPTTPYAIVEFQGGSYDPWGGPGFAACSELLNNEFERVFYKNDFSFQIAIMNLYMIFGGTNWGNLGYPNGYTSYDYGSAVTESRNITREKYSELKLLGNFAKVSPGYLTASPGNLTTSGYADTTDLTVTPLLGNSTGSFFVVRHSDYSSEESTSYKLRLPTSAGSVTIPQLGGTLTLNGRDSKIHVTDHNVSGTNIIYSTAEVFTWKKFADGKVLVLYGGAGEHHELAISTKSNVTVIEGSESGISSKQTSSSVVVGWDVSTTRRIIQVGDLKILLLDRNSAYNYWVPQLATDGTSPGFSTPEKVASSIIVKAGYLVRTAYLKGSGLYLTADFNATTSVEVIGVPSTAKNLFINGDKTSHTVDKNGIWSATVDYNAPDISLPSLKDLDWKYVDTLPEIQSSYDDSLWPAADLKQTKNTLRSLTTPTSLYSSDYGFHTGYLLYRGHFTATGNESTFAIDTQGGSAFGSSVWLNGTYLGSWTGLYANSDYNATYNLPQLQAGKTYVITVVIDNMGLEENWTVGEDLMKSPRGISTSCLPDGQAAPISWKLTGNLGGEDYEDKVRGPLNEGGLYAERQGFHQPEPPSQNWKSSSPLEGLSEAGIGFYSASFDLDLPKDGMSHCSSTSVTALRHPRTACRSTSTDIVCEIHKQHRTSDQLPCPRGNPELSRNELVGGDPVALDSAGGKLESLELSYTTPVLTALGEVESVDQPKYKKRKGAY

[3] = Compound was tested for inhibition of alpha-mannosidase from jack beans.; design: species or system Canavalia ensiformis
[4] = Compound was tested for inhibition of alpha-mannosidase from jack beans; NI means no inhibition.; design: species or system Canavalia ensiformis
Beta-galactosidase [5] = biological target: T1, Beta-galactosidase; assay: Compound was tested for inhibition of beta-galactosidase from aspergillus niger; NI means no inhibition.
Canavalia ensiformis [6] = assay: Compound was tested for % inhibition of alpha-mannosidase from jack beans.; settings: concentration not given here
Canavalia ensiformis [7] = assay: Compound was tested for % inhibition of beta-N-acetylglucosaminidase from jack beans.; settings: concentration not given here
[8] = system: Alpha-glucosidase (Saccharomyces cerevisiae); assay: Compound was tested for % inhibition of alpha-glucosidase from yeast.; settings: concentration not given here
[9] = system: beta-glucosidase (Prunus dulcis); assay: Compound was tested for % inhibition of beta-glucosidase from sweet almonds.; settings: concentration not given here
[10] = system: alpha-galactosidase (Coffea arabica); assay: Compound was tested for inhibition of alpha-galactosidase from green coffee beans; NI means no inhibition.

Row | Compound | Ki [1] | Ki (Beta-galactosidase [2]) | Ki [3] | Ki [4] | Ki (Beta-galactosidase [5]) | inhibition (Canavalia ensiformis [6]) | inhibition (Canavalia ensiformis [7]) | inhibition [8] | inhibition [9] | Ki [10]
1 | O[C@H]1[C@H](O)[C@@H](O)CNC[C@@H]1O | 22.7 µM | 6.5 µM | 25.7 µM |  |  |  |  |  |  | 
2 | O[C@H]1[C@H](O)[C@H](O)CNC[C@H]1O | 4.6 µM |  |  | No inhibition | No inhibition |  |  |  |  | 
3 | O[C@H]1[C@H](O)[C@H](O)CN(Cc2ccccc2)C[C@H]1O |  |  |  |  | No inhibition | 11% | 6% | 6% | 14% | No inhibition
